Source: ChEMBL document CHEMBL4765365, “Design, synthesis and antitumour evaluation of pyrrolo[1,2-f]-phenanthridine and dibenzo[f,h]pyrrolo[1,2-b]isoquinoline derivatives” (Eur J Med Chem, 2020)

Legend:
[1] = Cytotoxicity against human PacaS1 cells assessed as reduction in cell viability incubated for 72 hrs by XTT assay; assay type: functional, cell-based; details: PacaS1, 72 h
CCRF-CEM = experiment: Cytotoxicity against human CCRF-CEM cells assessed as reduction in cell viability incubated for 72 hrs by XTT assay; assay type: functional, cell-based
HCT-116 [2] = experiment: Antitumor activity against human HCT-116 cells xenografted in nude mouse assessed as reduction in tumor size at 30 mg/kg, iv administered for 5 days and repeated cycle for 2 days interval and measured on day 24; assay type: functional; details: HCT-116, iv, 576 h, time 24 day, read-out: TGI
NCI-H460 [3] = experiment: Induction of cell cycle arrest in human NCI-H460 cells assessed as S phase at 1.5 uM incubated for 36 hrs by PI staining based flow cytometry analysis (reference value: 7.6 +/- 3.9 %); assay type: functional
HCT-116 [4] = experiment: Induction of cell cycle arrest in human HCT-116 cells assessed as G0 phase at 0.375 uM incubated for 12 hrs by PI staining based flow cytometry analysis (reference value: 2.2 +/- 1.7 %); assay type: functional
NCI-H460 [5] = experiment: Induction of cell cycle arrest in human NCI-H460 cells assessed as G2/M phase at 1.5 uM measured at 0 hrs by PI staining based flow cytometry analysis (reference value: 25.2 +/- 4 %); assay type: functional
NCI-H460 [6] = experiment: Induction of cell cycle arrest in human NCI-H460 cells assessed as G1 phase at 1.5 uM incubated for 36 hrs by PI staining based flow cytometry analysis (reference value: 57.9 +/- 3.6 %); assay type: functional
HCT-116 [7] = experiment: Induction of cell cycle arrest in human HCT-116 cells assessed as G0 phase at 0.375 uM incubated for 36 hrs by PI staining based flow cytometry analysis (reference value: 2.5 +/- 0.8 %); assay type: functional
NCI-H460 [8] = experiment: Induction of cell cycle arrest in human NCI-H460 cells assessed as G0 phase at 0.75 uM incubated for 24 hrs by PI staining based flow cytometry analysis (reference value: 1.6 +/- 0.6 %); assay type: functional
NCI-H460 [9] = experiment: Induction of apoptosis in human NCI-H460 cells assessed as late apoptotic cells at 3 uM incubated for 48 hrs by annexin V-FITC and PI staining based flow cytometry analysis (reference value: 7.3 %); assay type: functional
NCI-H460 [10] = experiment: Induction of cell cycle arrest in human NCI-H460 cells assessed as S phase at 3 uM incubated for 24 hrs by PI staining based flow cytometry analysis (reference value: 11.7 +/- 6.1 %); assay type: functional
NCI-H460 [11] = experiment: Induction of cell cycle arrest in human NCI-H460 cells assessed as G2/M phase at 1.5 uM incubated for 36 hrs by PI staining based flow cytometry analysis (reference value: 25 +/- 1.2 %); assay type: functional
HCT-116 [12] = experiment: Induction of cell cycle arrest in human HCT-116 cells assessed as G2/M phase at 0.375 uM incubated for 36 hrs by PI staining based flow cytometry analysis (reference value: 23.6 +/- 1 %); assay type: functional
NCI-H460 [13] = experiment: Induction of cell cycle arrest in human NCI-H460 cells assessed as G1 phase at 3 uM incubated for 36 hrs by PI staining based flow cytometry analysis (reference value: 57.9 +/- 3.6 %); assay type: functional
NCI-H460 [14] = experiment: Induction of cell cycle arrest in human NCI-H460 cells assessed as G0 phase at 3 uM measured at 0 hrs by PI staining based flow cytometry analysis (reference value: 1.3 +/- 0.9 %); assay type: functional
NCI-H460 [15] = experiment: Cytotoxicity against human NCI-H460 cells assessed as reduction in cell viability incubated for 72 hrs by XTT assay; assay type: functional, cell-based; details: NCI-H460, 72 h
NCI-H460 [16] = experiment: Induction of cell cycle arrest in human NCI-H460 cells assessed as G2/M phase at 1.5 uM incubated for 24 hrs by PI staining based flow cytometry analysis (reference value: 21 +/- 6.7 %); assay type: functional
HCT-116 [17] = experiment: Induction of cell cycle arrest in human HCT-116 cells assessed as G1 phase at 0.375 uM measured at 0 hrs by PI staining based flow cytometry analysis (reference value: 52 +/- 5.1 %); assay type: functional
NCI-H460 [18] = experiment: Induction of cell cycle arrest in human NCI-H460 cells assessed as S phase at 3 uM incubated for 12 hrs by PI staining based flow cytometry analysis (reference value: 11.2 +/- 4.3 %); assay type: functional
NCI-H460 [19] = experiment: Induction of apoptosis in human NCI-H460 cells assessed as viable cells at 3 uM incubated for 48 hrs by annexin V-FITC and PI staining based flow cytometry analysis (reference value: 90.1 %); assay type: functional; details: read-out: Activity
HCT-116 [20] = experiment: Induction of cell cycle arrest in human HCT-116 cells assessed as G1 phase at 1.5 uM measured at 0 hrs by PI staining based flow cytometry analysis (reference value: 52 +/- 5.1 %); assay type: functional
NCI-H460 [21] = experiment: Induction of cell cycle arrest in human NCI-H460 cells assessed as G2/M phase at 3 uM incubated for 24 hrs by PI staining based flow cytometry analysis (reference value: 21 +/- 6.7 %); assay type: functional
NCI-H460 [22] = experiment: Induction of cell cycle arrest in human NCI-H460 cells assessed as G0 phase at 3 uM incubated for 24 hrs by PI staining based flow cytometry analysis (reference value: 1.6 +/- 0.6 %); assay type: functional
NCI-H460 [23] = experiment: Induction of cell cycle arrest in human NCI-H460 cells assessed as S phase at 1.5 uM incubated for 12 hrs by PI staining based flow cytometry analysis (reference value: 11.2 +/- 4.3 %); assay type: functional
NCI-H460 [24] = experiment: Induction of cell cycle arrest in human NCI-H460 cells assessed as G0 phase at 1.5 uM measured at 0 hrs by PI staining based flow cytometry analysis (reference value: 1.3 +/- 0.9 %); assay type: functional
NCI-H460 [25] = experiment: Induction of apoptosis in human NCI-H460 cells assessed as necrotic cells at 1.5 uM incubated for 48 hrs by annexin V-FITC and PI staining based flow cytometry analysis (reference value: 0.7 %); assay type: functional
NCI-H460 [26] = experiment: Induction of cell cycle arrest in human NCI-H460 cells assessed as G1 phase at 3 uM measured at 0 hrs by PI staining based flow cytometry analysis (reference value: 53.4 +/- 4.8 %); assay type: functional
NCI-H460 [27] = experiment: Induction of cell cycle arrest in human NCI-H460 cells assessed as G0 phase at 3 uM incubated for 36 hrs by PI staining based flow cytometry analysis (reference value: 2.8 +/- 0.7 %); assay type: functional
NCI-H460 [28] = experiment: Induction of apoptosis in human NCI-H460 cells assessed as necrotic cells at 6 uM incubated for 48 hrs by annexin V-FITC and PI staining based flow cytometry analysis (reference value: 0.7 %); assay type: functional
NCI-H460 [29] = experiment: Induction of cell cycle arrest in human NCI-H460 cells assessed as G1 phase at 3 uM incubated for 24 hrs by PI staining based flow cytometry analysis (reference value: 56.8 +/- 7.6 %); assay type: functional
NCI-H460 [30] = experiment: Induction of cell cycle arrest in human NCI-H460 cells assessed as G0 phase at 0.75 uM incubated for 36 hrs by PI staining based flow cytometry analysis (reference value: 2.8 +/- 0.7 %); assay type: functional
HCT-116 [31] = experiment: Induction of cell cycle arrest in human HCT-116 cells assessed as S phase at 1.5 uM incubated for 36 hrs by PI staining based flow cytometry analysis (reference value: 7.9 +/- 3.7 %); assay type: functional

Question: With `OCc1cn2c3ccccc3c3ccccc3c2c1CO` as the compound, how does the IC50 [1] read?
Answer: 1410 nM

Question: And the IC50 (CCRF-CEM)?
Answer: 370 nM

Question: What about the inhibition in vivo at 30 mg/kg (HCT-116 [2]) of the same compound?
Answer: 72%

Question: And the Activity (NCI-H460 [3])?
Answer: 3.5%

Question: And the Activity (HCT-116 [4])?
Answer: 1.8%

Question: And the Activity (NCI-H460 [5])?
Answer: 23.9%

Question: What about the Activity (NCI-H460 [6]) of the same compound?
Answer: 73.1%

Question: And the Activity (HCT-116 [7])?
Answer: 2.8%

Question: And the Activity (NCI-H460 [8])?
Answer: 1.8%

Question: And the Activity (NCI-H460 [9])?
Answer: 51.4%

Question: And the Activity (NCI-H460 [10])?
Answer: 10.9%

Question: And the Activity (NCI-H460 [11])?
Answer: 17.5%

Question: What about the Activity (HCT-116 [12]) of the same compound?
Answer: 23.4%

Question: And the Activity (NCI-H460 [13])?
Answer: 51.8%

Question: And the Activity (NCI-H460 [14])?
Answer: 1.3%

Question: What about the IC50 (NCI-H460 [15]) of the same compound?
Answer: 3140 nM

Question: And the Activity (NCI-H460 [16])?
Answer: 25.4%

Question: And the Activity (HCT-116 [17])?
Answer: 52.9%

Question: What about the Activity (NCI-H460 [18]) of the same compound?
Answer: 17.3%

Question: What about the viability at 3 µM (NCI-H460 [19]) of the same compound?
Answer: 36.2%

Question: What about the Activity (HCT-116 [20]) of the same compound?
Answer: 53.6%

Question: What about the Activity (NCI-H460 [21]) of the same compound?
Answer: 30%

Question: And the Activity (NCI-H460 [22])?
Answer: 5.2%

Question: And the Activity (NCI-H460 [23])?
Answer: 16.3%

Question: And the Activity (NCI-H460 [24])?
Answer: 1.4%

Question: And the Activity (NCI-H460 [25])?
Answer: 0.5%

Question: And the Activity (NCI-H460 [26])?
Answer: 52.1%

Question: And the Activity (NCI-H460 [27])?
Answer: 8.7%

Question: And the Activity (NCI-H460 [28])?
Answer: 1.6%

Question: What about the Activity (NCI-H460 [29]) of the same compound?
Answer: 49.3%

Question: What about the Activity (NCI-H460 [30]) of the same compound?
Answer: 1.9%

Question: What about the Activity (HCT-116 [31]) of the same compound?
Answer: 6.1%
